# In PubChem BioAssay (NCI):
#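 Cells were grown in 96-well plates and exposed to each compound for 48 hours at five concentrations; endpoints were interpolated linearly between bracketing concentrations, or set to the highest concentration if not reached. The concentration for full growth arrest is given as TGI.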
# Tests used:
# Assay in all cases: growth of human tumour cells (NCI), 48 h
# HL-60(TB) leukemia = tested on: HL-60(TB) leukemia
# SF-539 CNS = tested on: SF-539 CNS
# M14 melanoma = tested on: M14 melanoma
# UO-31 renal = tested on: UO-31 renal
# IGROV1 ovarian = tested on: IGROV1 ovarian
# XF 498 CNS = tested on: XF 498 CNS
# SK-MEL-2 melanoma = tested on: SK-MEL-2 melanoma
# U251 CNS = tested on: U251 CNS
# RXF 393 renal = tested on: RXF 393 renal
# OVCAR-8 ovarian = tested on: OVCAR-8 ovarian
# SF-295 CNS = tested on: SF-295 CNS
# 786-0 renal = tested on: 786-0 renal
# SK-OV-3 ovarian = tested on: SK-OV-3 ovarian
# LXFL 529 NSCLC = tested on: LXFL 529 NSCLC
# SK-MEL-28 melanoma = tested on: SK-MEL-28 melanoma
# SF-268 CNS = tested on: SF-268 CNS
# HCT-116 colon = tested on: HCT-116 colon
# OVCAR-4 ovarian = tested on: OVCAR-4 ovarian
# UACC-62 melanoma = tested on: UACC-62 melanoma
# SW-620 colon = tested on: SW-620 colon
# DMS 273 small cell lung = tested on: DMS 273 small cell lung
# KM20L2 colon = tested on: KM20L2 colon
# UACC-257 melanoma = tested on: UACC-257 melanoma
# SK-MEL-5 melanoma = tested on: SK-MEL-5 melanoma
# HOP-18 NSCLC = tested on: HOP-18 NSCLC
# NCI-H226 lung = tested on: NCI-H226 lung
# SNB-75 CNS = tested on: SNB-75 CNS
# SN12C renal = tested on: SN12C renal
# MALME-3M melanoma = tested on: MALME-3M melanoma
# OVCAR-3 ovarian = tested on: OVCAR-3 ovarian
# HT29 colon = tested on: HT29 colon
# NCI-H23 lung = tested on: NCI-H23 lung
# COLO 205 colon = tested on: COLO 205 colon
# CCRF-CEM leukemia = tested on: CCRF-CEM leukemia
# MOLT-4 leukemia = tested on: MOLT-4 leukemia
# A549 NSCLC = tested on: A549 NSCLC
# SNB-78 CNS = tested on: SNB-78 CNS
# ACHN renal = tested on: ACHN renal
# M19-MEL melanoma = tested on: M19-MEL melanoma
# TK-10 renal = tested on: TK-10 renal
# HCC-2998 colon = tested on: HCC-2998 colon
# HOP-62 NSCLC = tested on: HOP-62 NSCLC
# SR leukemia = tested on: SR leukemia
# DLD-1 colon = tested on: DLD-1 colon
# NCI-H522 lung = tested on: NCI-H522 lung
# CAKI-1 renal = tested on: CAKI-1 renal
# LOX IMVI melanoma = tested on: LOX IMVI melanoma
# KM12 colon = tested on: KM12 colon
# NCI-H460 lung = tested on: NCI-H460 lung
# EKVX NSCLC = tested on: EKVX NSCLC
# SNB-19 CNS = tested on: SNB-19 CNS
# A498 renal = tested on: A498 renal
# K-562 leukemia = tested on: K-562 leukemia
# OVCAR-5 ovarian = tested on: OVCAR-5 ovarian
# HCT-15 colon = tested on: HCT-15 colon
# HOP-92 NSCLC = tested on: HOP-92 NSCLC
# RPMI-8226 leukemia = tested on: RPMI-8226 leukemia
# DMS 114 small cell lung = tested on: DMS 114 small cell lung
compound,measurement,setting,value
Cc1ccc(C2=Nc3ccccc3S(=O)C(c3ccc4c(c3)OCO4)C2)cc1 (configuration not stated),TGI,HL-60(TB) leukemia,59.1 µM
same,TGI,SF-539 CNS,46.3 µM
same,TGI,M14 melanoma,38 µM
same,TGI,UO-31 renal,> 100 µM
same,TGI,IGROV1 ovarian,> 100 µM
same,TGI,XF 498 CNS,36.1 µM
same,TGI,SK-MEL-2 melanoma,41.6 µM
same,TGI,U251 CNS,31.1 µM
same,TGI,RXF 393 renal,32.1 µM
same,TGI,OVCAR-8 ovarian,46.9 µM
same,TGI,SF-295 CNS,> 100 µM
same,TGI,786-0 renal,44 µM
same,TGI,SK-OV-3 ovarian,91.3 µM
same,TGI,LXFL 529 NSCLC,> 10 µM
same,TGI,SK-MEL-28 melanoma,89.9 µM
same,TGI,SF-268 CNS,50.5 µM
same,TGI,HCT-116 colon,37.3 µM
same,TGI,OVCAR-4 ovarian,> 100 µM
same,TGI,UACC-62 melanoma,51.2 µM
same,TGI,SW-620 colon,34.5 µM
same,TGI,DMS 273 small cell lung,> 100 µM
same,TGI,KM20L2 colon,33 µM
same,TGI,UACC-257 melanoma,88.4 µM
same,TGI,SK-MEL-5 melanoma,29.2 µM
same,TGI,HOP-18 NSCLC,> 100 µM
same,TGI,NCI-H226 lung,> 100 µM
same,TGI,SNB-75 CNS,> 100 µM
same,TGI,SN12C renal,33.5 µM
same,TGI,MALME-3M melanoma,> 100 µM
same,TGI,OVCAR-3 ovarian,69.4 µM
same,TGI,HT29 colon,31.5 µM
same,TGI,NCI-H23 lung,48.9 µM
same,TGI,COLO 205 colon,> 100 µM
same,TGI,CCRF-CEM leukemia,83.9 µM
same,TGI,MOLT-4 leukemia,> 100 µM
same,TGI,A549 NSCLC,> 100 µM
same,TGI,SNB-78 CNS,86.9 µM
same,TGI,ACHN renal,82.4 µM
same,TGI,M19-MEL melanoma,> 100 µM
same,TGI,TK-10 renal,> 100 µM
same,TGI,HCC-2998 colon,> 10 µM
same,TGI,HOP-62 NSCLC,> 100 µM
same,TGI,SR leukemia,> 100 µM
same,TGI,DLD-1 colon,30.7 µM
same,TGI,NCI-H522 lung,44.7 µM
same,TGI,CAKI-1 renal,> 100 µM
same,TGI,LOX IMVI melanoma,29.8 µM
same,TGI,KM12 colon,57.8 µM
same,TGI,NCI-H460 lung,> 10 µM
same,TGI,EKVX NSCLC,> 100 µM
same,TGI,SNB-19 CNS,> 100 µM
same,TGI,A498 renal,51.7 µM
same,TGI,K-562 leukemia,98.8 µM
O=C(CSSCC(=O)OCCS(=O)(=O)Nc1ccc(Br)cc1)OCCS(=O)(=O)Nc1ccc(Br)cc1,TGI,HL-60(TB) leukemia,38.7 µM
same,TGI,SF-539 CNS,32.8 µM
same,TGI,M14 melanoma,39.1 µM
same,TGI,UO-31 renal,> 100 µM
same,TGI,IGROV1 ovarian,88.7 µM
same,TGI,SK-MEL-2 melanoma,79.6 µM
same,TGI,U251 CNS,> 100 µM
same,TGI,RXF 393 renal,16.8 µM
same,TGI,OVCAR-8 ovarian,45.2 µM
same,TGI,OVCAR-5 ovarian,84.7 µM
same,TGI,SF-295 CNS,> 100 µM
same,TGI,SK-OV-3 ovarian,89.8 µM
same,TGI,LXFL 529 NSCLC,34.1 µM
same,TGI,SK-MEL-28 melanoma,96.4 µM
same,TGI,SF-268 CNS,63.2 µM
same,TGI,OVCAR-4 ovarian,33 µM
same,TGI,UACC-62 melanoma,34.6 µM
same,TGI,SW-620 colon,44.2 µM
same,TGI,DMS 273 small cell lung,40.3 µM
same,TGI,KM20L2 colon,> 100 µM
same,TGI,UACC-257 melanoma,44.6 µM
same,TGI,SK-MEL-5 melanoma,26 µM
same,TGI,HCT-15 colon,48.5 µM
same,TGI,HOP-18 NSCLC,> 100 µM
same,TGI,SNB-75 CNS,66.6 µM
same,TGI,SN12C renal,59.8 µM
same,TGI,MALME-3M melanoma,22.8 µM
same,TGI,OVCAR-3 ovarian,37.6 µM
same,TGI,HT29 colon,31.8 µM
same,TGI,NCI-H23 lung,64 µM
same,TGI,COLO 205 colon,62.2 µM
same,TGI,CCRF-CEM leukemia,> 100 µM
same,TGI,MOLT-4 leukemia,15.4 µM
same,TGI,A549 NSCLC,> 100 µM
same,TGI,SNB-78 CNS,71.3 µM
same,TGI,ACHN renal,82.8 µM
same,TGI,M19-MEL melanoma,56.4 µM
same,TGI,TK-10 renal,87.8 µM
same,TGI,HOP-92 NSCLC,51.5 µM
same,TGI,HCC-2998 colon,25.9 µM
same,TGI,DLD-1 colon,> 100 µM
same,TGI,NCI-H522 lung,24 µM
same,TGI,CAKI-1 renal,68.4 µM
same,TGI,LOX IMVI melanoma,42.3 µM
same,TGI,KM12 colon,30 µM
same,TGI,NCI-H460 lung,> 100 µM
same,TGI,EKVX NSCLC,> 100 µM
same,TGI,RPMI-8226 leukemia,83.7 µM
same,TGI,SNB-19 CNS,> 100 µM
same,TGI,A498 renal,39.8 µM
same,TGI,DMS 114 small cell lung,29.3 µM
same,TGI,K-562 leukemia,> 100 µM
COC12OCCN(C)C1=CC(=O)C1(C)N=NCC12 (configuration not stated),TGI,SF-539 CNS,> 100 µM
same,TGI,M14 melanoma,> 100 µM
same,TGI,UO-31 renal,> 100 µM
same,TGI,IGROV1 ovarian,> 100 µM
same,TGI,U251 CNS,> 100 µM
same,TGI,RXF 393 renal,> 100 µM
same,TGI,OVCAR-8 ovarian,> 100 µM
same,TGI,SF-295 CNS,> 100 µM
same,TGI,786-0 renal,> 100 µM
same,TGI,SK-OV-3 ovarian,> 100 µM
same,TGI,LXFL 529 NSCLC,> 100 µM
same,TGI,SK-MEL-28 melanoma,> 100 µM
same,TGI,HCT-116 colon,> 100 µM
same,TGI,UACC-62 melanoma,> 100 µM
same,TGI,SW-620 colon,> 100 µM
same,TGI,DMS 273 small cell lung,> 100 µM
same,TGI,UACC-257 melanoma,> 100 µM
same,TGI,SK-MEL-5 melanoma,> 100 µM
same,TGI,HCT-15 colon,> 100 µM
same,TGI,HOP-18 NSCLC,> 100 µM
same,TGI,NCI-H226 lung,> 100 µM
same,TGI,SNB-75 CNS,> 100 µM
same,TGI,SN12C renal,> 100 µM
same,TGI,MALME-3M melanoma,> 100 µM
same,TGI,OVCAR-3 ovarian,> 100 µM
same,TGI,HT29 colon,> 100 µM
same,TGI,NCI-H23 lung,> 100 µM
same,TGI,COLO 205 colon,> 100 µM
same,TGI,CCRF-CEM leukemia,> 100 µM
same,TGI,MOLT-4 leukemia,> 100 µM
same,TGI,A549 NSCLC,> 100 µM
same,TGI,SNB-78 CNS,> 100 µM
same,TGI,ACHN renal,> 100 µM
same,TGI,M19-MEL melanoma,> 100 µM
same,TGI,TK-10 renal,> 100 µM
same,TGI,HOP-92 NSCLC,> 100 µM
same,TGI,HCC-2998 colon,> 100 µM
same,TGI,DLD-1 colon,> 100 µM
same,TGI,NCI-H522 lung,> 100 µM
same,TGI,CAKI-1 renal,> 100 µM
same,TGI,LOX IMVI melanoma,> 100 µM
same,TGI,KM12 colon,> 100 µM
same,TGI,NCI-H460 lung,> 100 µM
same,TGI,EKVX NSCLC,> 100 µM
same,TGI,RPMI-8226 leukemia,> 100 µM
same,TGI,A498 renal,> 100 µM
same,TGI,DMS 114 small cell lung,> 100 µM
same,TGI,K-562 leukemia,> 100 µM
COc1ccc(/C=C2\CCC(CCN3CCOCC3)C2=O)cc1 (configuration not stated),TGI,HL-60(TB) leukemia,> 100 µM
same,TGI,SF-539 CNS,> 100 µM
same,TGI,M14 melanoma,> 100 µM
same,TGI,UO-31 renal,> 100 µM
same,TGI,IGROV1 ovarian,> 100 µM
same,TGI,XF 498 CNS,> 100 µM
same,TGI,SK-MEL-2 melanoma,> 100 µM
same,TGI,RXF 393 renal,> 100 µM
same,TGI,OVCAR-8 ovarian,> 100 µM
same,TGI,OVCAR-5 ovarian,> 100 µM
same,TGI,SF-295 CNS,> 100 µM
same,TGI,786-0 renal,> 100 µM
same,TGI,LXFL 529 NSCLC,> 100 µM
same,TGI,SK-MEL-28 melanoma,> 100 µM
same,TGI,SF-268 CNS,> 100 µM
same,TGI,HCT-116 colon,> 100 µM
same,TGI,OVCAR-4 ovarian,> 100 µM
same,TGI,UACC-62 melanoma,> 100 µM
same,TGI,SW-620 colon,> 100 µM
same,TGI,DMS 273 small cell lung,> 100 µM
same,TGI,KM20L2 colon,> 100 µM
same,TGI,UACC-257 melanoma,> 100 µM
same,TGI,SK-MEL-5 melanoma,> 100 µM
same,TGI,HCT-15 colon,> 100 µM
same,TGI,HOP-18 NSCLC,> 100 µM
same,TGI,NCI-H226 lung,> 100 µM
same,TGI,SNB-75 CNS,> 100 µM
same,TGI,SN12C renal,> 100 µM
same,TGI,MALME-3M melanoma,> 100 µM
same,TGI,OVCAR-3 ovarian,> 100 µM
same,TGI,HT29 colon,> 100 µM
same,TGI,NCI-H23 lung,> 100 µM
same,TGI,CCRF-CEM leukemia,> 100 µM
same,TGI,MOLT-4 leukemia,> 100 µM
same,TGI,A549 NSCLC,> 100 µM
same,TGI,SNB-78 CNS,> 100 µM
same,TGI,ACHN renal,> 100 µM
same,TGI,M19-MEL melanoma,> 100 µM
same,TGI,TK-10 renal,> 100 µM
same,TGI,HOP-92 NSCLC,> 100 µM
same,TGI,HCC-2998 colon,> 100 µM
same,TGI,HOP-62 NSCLC,> 100 µM
same,TGI,SR leukemia,> 100 µM
same,TGI,DLD-1 colon,> 100 µM
same,TGI,CAKI-1 renal,> 100 µM
same,TGI,LOX IMVI melanoma,> 100 µM
same,TGI,KM12 colon,> 100 µM
same,TGI,NCI-H460 lung,> 100 µM
same,TGI,EKVX NSCLC,> 100 µM
same,TGI,RPMI-8226 leukemia,> 100 µM
same,TGI,SNB-19 CNS,> 100 µM
same,TGI,A498 renal,> 100 µM
same,TGI,DMS 114 small cell lung,> 100 µM
same,TGI,K-562 leukemia,> 100 µM
